# Test results: US20170240539A1, “Preparation and Use of Cyclic Sulfonamide Derivatives as PAR-1 Receptor Antagonists” (MERCK SHARP & DOHME CORP., priority 2014, published 2017)
# Molecular target: T1, PAR-1 receptor (Homo sapiens, UniProt P25116)
# T1 construct: endogenous in cells; host or cells: HEK 293
# T1 sequence (P25116 22-425): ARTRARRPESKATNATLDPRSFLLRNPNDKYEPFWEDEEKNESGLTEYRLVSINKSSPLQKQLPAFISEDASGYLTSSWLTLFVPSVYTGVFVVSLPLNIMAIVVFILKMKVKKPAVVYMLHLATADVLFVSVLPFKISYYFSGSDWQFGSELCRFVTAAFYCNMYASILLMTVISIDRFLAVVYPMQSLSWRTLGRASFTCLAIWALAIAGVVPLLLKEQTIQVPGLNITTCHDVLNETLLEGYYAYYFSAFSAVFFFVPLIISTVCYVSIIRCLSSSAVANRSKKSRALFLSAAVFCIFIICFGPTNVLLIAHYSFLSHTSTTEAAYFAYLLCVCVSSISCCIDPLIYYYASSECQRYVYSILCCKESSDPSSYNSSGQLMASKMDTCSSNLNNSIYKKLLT
# Assay: PAR-1 FLIPR Assay
# Type: cell-based
# Details: HEK 293 cells, FLIPR calcium-5 dye; inhibition of signal from PAR1 selective receptor-activating peptide at 80% activation concentration (1.4-2.0 uM); compound incubated 30 minutes at 25 degrees
# Experimental: The following assay was used to determine the ability of the inventive compounds to inhibit the PAR-1 receptor.
# HEK 293 Cells are grown in media containing DMEM, 10% FBS pen/strep/L-Glutamine and non-essential amino acids. The cells are plated in 384-well PDL coated plates at 12000 cells/well and incubated overnight at 37° C./5% CO2. Media is then removed from the cells, which are then incubated with buffer (Hank's containing HEPES and Chaps) containing FLIPR calcium-5 dye, made with buffer containing probenecid, for 60 minutes at 37° C. Varying concentrations of compound in a final concentration of 5% DMSO are then added to the cells and incubated at 25 degrees for 30 minutes. The plates are then added to a FLIPR Tetra cellular screening system and the device adds a concentration of a PAR1 selective receptor-activating peptide with the sequence Ala-parafluoroPhe-Arg-Cha-Cit-Tyr-NH2 (SEQ ID NO: 3) (prepared in water) at a concentration equal to the effective concentration that achieves 80% activation of signaling on the day of the experiment. The range is from 1.4-2.0 uM peptide. The FLIPR reads at an excitation wavelength of 480 nm and an emission wavelength of 535 nm, and performs 60 scans over a 1-2 min reading time. The data are analyzed by taking the peak signal over a portion of the range of the 60 scans and dividing this signal by the minimum signal for that same range. The data are expressed as percent inhibition of the maximum divided by the minimum signal achieved at 80% activation produced by the PAR1 activating peptide on the test day.
row,SMILES,IC50 [nM]
1,"COc1ncccc1-c1ccc(/C=C/[C@@H]2[C@@H]3[C@@H](C)N(C(=O)OC(C)(C)C)S(=O)(=O)[C@@]3(CC(N)=O)CC(F)(F)[C@H]2C)nc1 [Example 19, (3R,3aR,4S,5S,7aS)-tert-butyl 7a-(2-amino-2-oxoethyl)-6,6-difluoro-4-((E)-2-(2′-methoxy-[3,3′-bipyridin]-6-yl)vinyl)-3,5-dimethylhexahydrobenzo[d]isothiazole-2(3H)-carboxylate 1,1-dioxide]",54
2,"C[C@@H]1[C@H](/C=C/c2ccc(-c3ccccc3C#N)cn2)[C@H]2[C@@H](CC1(F)F)S(=O)(=O)N[C@@H]2C [Example 8, (3R,3aR,4S,5R,7aR)-4-((E)-2-(5-(2-cyanophenyl)pyridin-2-yl)vinyl)-6,6-difluoro-3,5-dimethyloctahydrobenzo[d]isothiazole-1,1-dioxide]",178
3,"C[C@H]1NS(=O)(=O)[C@]2(C)CC(F)(F)[C@@H](C)[C@H](/C=C/c3ccc(-c4cccnc4C#N)cn3)[C@H]12 [Example 17, (3R,3aR,4S,5S,7aR)-6,6-difluoro-4-((E)-2-(2′-cyano-[3,3′-bipyridin]-6-yl)vinyl)-3,5,7a-trimethyloctahydrobenzo[d]isothiazole 1,1-dioxide]",12
4,"C[C@H]1NS(=O)(=O)[C@]2(C)CC(F)(F)[C@@H](C)[C@H](/C=C/c3ccc(-c4ccccc4C#N)cn3)[C@H]12 [Example 16, (3R,3aR,4S,5S,7aR)-6,6-difluoro-4-((E)-2-(5-(2-cyanophenyl)pyridin-2-yl)vinyl)-3,5,7a-trimethyloctahydrobenzo[d]isothiazole 1,1-dioxide]",11.8
5,"CC[C@@H]1CC[C@@H]2[C@H]([C@H]1/C=C/c1ccc(-c3ccccc3C#N)cn1)[C@@H](C)N(C)S2(=O)=O [Example 27, 2-(6-((E)-2-((3R,3aR,4R,5R,7aR)-5-ethyl-2,3-dimethyl-1,1-dioxidooctahydrobenzo[d]isothiazol-4-yl)vinyl)pyridin-3-yl)benzonitrile]",13
6,"COc1ncccc1-c1ccc(/C=C/[C@@H]2[C@@H]3[C@@H](C)NS(=O)(=O)[C@]3(CC(N)=O)CC(F)(F)[C@H]2C)nc1 [Example 18, 2-((3R,3aR,4S,5S,7aR)-6,6-difluoro-4-((E)-2-(2′-methoxy-[3,3′-bipyridin]-6-yl)vinyl)-3,5-dimethyl-1,1-dioxidooctahydrobenzo[d]isothiazol-7a-yl)acetamide]",36.8
7,"C[C@H]1NS(=O)(=O)[C@]2(CC(N)=O)CC(F)(F)[C@@H](C)[C@H](/C=C/c3ccc(-c4cccc(F)c4)cn3)[C@H]12 [Example 20, 2-((3R,3aR,4S,5S,7aR)-6,6-difluoro-4-((E)-2-(5-(3-fluorophenyl)pyridin-2-yl)vinyl)-3,5-dimethyl-1,1-dioxidooctahydrobenzo[d]isothiazol-7a-yl)acetamide]",5
8,"COc1ncccc1-c1ccc(/C=C/[C@@H]2[C@@H]3[C@@H](C)NS(=O)(=O)[C@@]3(CC(N)=O)CC(F)(F)[C@H]2C)nc1 [Example 22, 2-((3R,3aR,4S,5S,7aS)-6,6-difluoro-4-((E)-2-(2′-methoxy-[3,3′-bipyridin]-6-yl)vinyl)-3,5-dimethyl-1,1-dioxidooctahydrobenzo[d]isothiazol-7a-yl)acetamide]",337
9,"C[C@H]1NS(=O)(=O)[C@]2(CC(=O)O)CC(F)(F)[C@@H](C)[C@H](/C=C/c3ccc(-c4ccccc4C#N)cn3)[C@H]12 [Example 25, 2-((3R,3aR,4S,5S,7aR)-4-((E)-2-(5-(2-cyanophenyl)pyridin-2-yl)vinyl)-6,6-difluoro-3,5-dimethyl-1,1-dioxidooctahydrobenzo[d]isothiazol-7a-yl)acetic acid]",12
10,COc1ncccc1-c1ccc(/C=C/[C@@H]2[C@@H]3[C@@H](C)N(C(=O)OC(C)(C)C)S(=O)(=O)[C@]3(CC(N)=O)CC(F)(F)[C@H]2C)nc1 [Example 21],110
